# Assay results from patent publication US20240279236A1, “COMPOUNDS AND METHODS OF TREATING TUBERCULOSIS” (Fimbrion Therapeutics, Inc., priority 2021, published 2024).
# Tested on: WT Mtb Erdman strain
# Test: Microplate Alamar Blue Assay (MABA), Mtb growth inhibition
# Assay type: cell-based, Mycobacterium tuberculosis
# Conditions: Middlebrook 7H9 media, 7 days at 37° C. in 5% CO2
row,Structure (SMILES),IC50 [nM]
1,"Cc1cc2c(N[C@@H]3C[C@H]3c3ccc(F)c(F)c3)nc(-c3ccc(=O)[nH]c3)nc2s1 [Example 490, 5-(4-(((1R,2S)-2-(3,4-difluorophenyl)cyclopropyl)amino)-6-methylthieno[2,3-d]pyrimidin-2-yl)pyridin-2(1H)-one]",> 9100

# Same assay, conditions: Mycobacterium tuberculosis, ERDMAN, 168 h, Middlebrook 7H9 media, 7 days at 37° C. in 5% CO2
row,Structure (SMILES),IC50 [nM]
1,"Cc1cc2c(NCCCc3cc(F)cc(C(F)(F)F)c3)nc(C(F)(F)F)nc2s1 [Example 240, N-(3-(3-fluoro-5-(trifluoromethyl)phenyl)propyl)-6-methyl-2-(trifluoromethyl) thieno[2,3-d] pyrimidin-4-amine]",2900
2,"Cc1cc2c(N[C@@H]3C[C@H]3c3ccc(F)c(F)c3)nc(-c3ccc(O)cc3)nc2s1 [Example 497, 4-(4-(((1R,2S)-2-(3,4-difluorophenyl)cyclopropyl)amino)-6-methylthieno[2,3-d]pyrimidin-2-yl)phenol]",> 10000
3,"CCc1nc(NCCCc2ccc3ccccc3c2)c2cc(C)sc2n1 [Example 258, 2-ethyl-6-methyl-N-(3-(naphthalen-2-yl)propyl)thieno[2,3-d]pyrimidin-4-amine]",190
4,"Cc1cc2c(NCCCc3ccc(-c4ccc5nonc5c4)cc3)nc(-c3ccoc3)nc2s1 [Example 343, N-(3-[4-(2,1,3-benzoxadiazol-5-yl)phenyl]propyl)-2-(furan-3-yl)-6-methylthieno[2,3-d]pyrimidin-4-amine]",< 15
5,"Cc1cc2c(NCCCn3ccc4ccccc43)nc(C(F)(F)F)nc2s1 [Example 177, N-(3-(1H-indol-1-yl)propyl)-6-methyl-2-(trifluoromethyl) thieno[2,3-d] pyrimidin-4-amine]",4700
6,"CCc1nc(NCCCc2ccc(OC(F)(F)F)c(C)c2)c2cc(C)sc2n1 [Example 136, 2-ethyl-6-methyl-N-(3-(3-methyl-4-(trifluoromethoxy)phenyl)propyl)thieno [2,3-d]pyrimidin-4-amine]",690
7,"Cc1cc2c(NCCCc3ccc(-c4ccoc4)cc3)nc(-c3ccoc3)nc2s1 [Example 338, 2-(furan-3-yl)-N-(3-[4-(furan-3-yl)phenyl]propyl)-6-methylthieno[2,3-d]pyrimidin-4-amine]",15
8,"Cc1cc2c(NCCCc3ccccc3)nc(N3CC(F)C3)nc2s1 [Example 512, 2-(3-fluoroazetidin-1-yl)-6-methyl-N-(3-phenylpropyl)thieno[2,3-d]pyrimidin-4-amine]",610
9,"Cc1cc2c(NCCCc3ccc(-c4ccc(OC(F)(F)F)cc4)cc3)nc(-n3ccnc3)nc2s1 [Example 451, 2-(1H-imidazol-1-yl)-6-methyl-N-(3-(4′-(trifluoromethoxy)-[1,1′-biphenyl]-4-yl)propyl)thieno[2,3-d]pyrimidin-4-amine]",1800
10,"Cc1cc2c(NCCCc3ccc(-c4ccc(OC(F)(F)F)cc4)cc3)nc(C(C)C)nc2s1 [Example 455, 2-isopropyl-6-methyl-N-(3-(4′-(trifluoromethoxy)-[1,1′-biphenyl]-4-yl)propyl)thieno[2,3-d]pyrimidin-4-amine]",56
11,"Cc1cc2c(NCCCc3ccccc3)nc(N3CCC(F)(F)CC3)nc2s1 [Example 515, 2-(4,4-difluoropiperidin-1-yl)-6-methyl-N-(3-phenylpropyl)thieno[2,3-d]pyrimidin-4-amine]",> 10000
12,"Cc1cc2c(NCCCc3ccccc3)nc(N3CCCCC3)nc2s1 [Example 517, 6-methyl-N-(3-phenylpropyl)-2-(piperidin-1-yl)thieno[2,3-d]pyrimidin-4-amine]",3100
13,"CCc1nc(NCCCc2ccc(-c3ccc(N(C)C)cc3)cc2)c2cc(C)sc2n1 [Example 299, N-(3-(4′-(dimethylamino)-[1,1′-biphenyl]-4-yl)propyl)-2-ethyl-6-methylthieno[2,3-d]pyrimidin-4-amine]",26
14,"CCc1nc(NCCCc2ccc(OC(F)(F)F)cc2)c2cc(C)sc2n1 [Example 34, 2-ethyl-6-methyl-N-(3-(4-(trifluoromethoxy)phenyl)propyl)thieno[2,3-d]pyrimidin-4-amine]",270
15,"Cc1cc2c(NCCCc3ccccc3)nc(Cl)nc2s1 [Example 224, 2-chloro-6-methyl-N-(3-phenylpropyl)thieno [2,3-d]pyrimidin-4-amine]",1600
16,"Cc1cc2c(NCCCc3ccc(-c4ccnc(C(F)(F)F)n4)cc3)nc(-c3ccoc3)nc2s1 [Example 385, 2-(furan-3-yl)-6-methyl-N-(3-(4-[2-(trifluoromethyl)pyrimidin-4-yl]phenyl)propyl) thieno[2,3-d]pyrimidin-4-amine]",200
17,"Cc1cc2c(N[C@@H]3C[C@H]3c3ccc(F)c(F)c3)nc(-c3ccc(=O)[nH]c3)nc2s1 [Example 490, 5-(4-(((1R,2S)-2-(3,4-difluorophenyl)cyclopropyl)amino)-6-methylthieno[2,3-d]pyrimidin-2-yl)pyridin-2(1H)-one]",4700
18,"CCc1nc(NCCCc2cccc(-c3ccccc3)c2)c2cc(C)sc2n1 [Example 270, N-(3-([1,1′-biphenyl]-3-yl)propyl)-2-ethyl-6-methylthieno[2,3-d]pyrimidin-4-amine]",520
19,"Cc1cc2c(NCCCc3ccccc3)nc(-c3cnsc3)nc2s1 [Example 119, 2-(isothiazol-4-yl)-6-methyl-N-(3-phenylpropyl)thieno [2,3-d]pyrimidin-4-amine]",560
20,"Cc1cc2c(N[C@@H]3C[C@H]3c3ccc(F)c(F)c3)nc(N)nc2s1 [Example 527, N4-((1R,2S)-2-(3,4-difluorophenyl)cyclopropyl)-6-methylthieno[2,3-d]pyrimidine-2,4-diamine]",> 10000

row,Structure (SMILES),IC50 [nM]
1,"CCc1nc(NCCCc2ccc(-c3ccc(=O)[nH]c3)cc2)c2cc(C)sc2n1 [Example 278, 5-(4-(3-((2-ethyl-6-methylthieno[2,3-d]pyrimidin-4-yl)amino)propyl)phenyl)pyridin-2(1H)-one]",710
2,"Cc1cc2c(NCCCc3ccc(Br)cc3)nc(C(F)(F)F)nc2s1 [Example 204, N-(3-(4-bromophenyl)propyl)-6-methyl-2-(trifluoromethyl) thieno[2,3-d] pyrimidin-4-amine]",1900
3,"CCc1nc(NCCCc2ccc3c(c2)CCO3)c2cc(C)sc2n1 [Example 256, N-(3-(2,3-dihydrobenzofuran-5-yl)propyl)-2-ethyl-6-methylthieno[2,3-d]pyrimidin-4-amine]",290
4,"Cc1cc2c(NCCCc3ccc(Br)cc3F)nc(-c3ccoc3)nc2s1 [Example 211, N-(3-(4-bromo-2-fluorophenyl)propyl)-2-(furan-3-yl)-6-methylthieno[2,3-d]pyrimidin-4-amine]",120
5,"CCc1nc(NCCCc2cccc(-c3ccc(OC(F)(F)F)cc3)c2)c2cc(C)sc2n1 [Example 269, 2-ethyl-6-methyl-N-(3-(4′-(trifluoromethoxy)-[1,1′-biphenyl]-3-yl)propyl)thieno [2,3-d]pyrimidin-4-amine]",1100
6,"Cc1cccc(-c2nc(N[C@@H]3C[C@H]3c3ccc(F)c(F)c3)c3cc(C)sc3n2)n1 [Example 89, N-((1R,2S)-2-(3,4-difluorophenyl)cyclopropyl)-6-methyl-2-(6-methylpyridin-2-yl)thieno[2,3-d]pyrimidin-4-amine]",> 10000
7,"CCc1nc(NCCCc2ccc(-c3ccc(C4CC4)cc3)cc2)c2cc(C)sc2n1 [Example 302, N-(3-(4′-cyclopropyl-[1,1′-biphenyl]-4-yl)propyl)-2-ethyl-6-methylthieno[2,3-d]pyrimidin-4-amine]",27
8,"Cc1cc2c(NCCCc3ccc(-c4ccc(Cl)cc4)cc3)nc(-c3ccc(F)cc3)nc2s1 [Example 436, N-(3-(4′-chloro-[1,1′-biphenyl]-4-yl)propyl)-2-(4-fluorophenyl)-6-methylthieno[2,3-d]pyrimidin-4-amine]",220
9,"Cc1cc2c(NCCCc3ccc(-c4ccc(OC(F)(F)F)cc4)cc3)nc(SC(F)(F)F)nc2s1 [Example 597, 6-methyl-N-(3-(4′-(trifluoromethoxy)-[1,1′-biphenyl]-4-yl)propyl)-2-((trifluoromethyl)thio)thieno[2,3-d]pyrimidin-4-amine]",6300
10,"Fc1ccc([C@@H]2C[C@H]2Nc2nc(-c3ccccn3)nc3sccc23)cc1F [Example 31, N-((1R,2S)-2-(3,4-difluorophenyl)cyclopropyl)-2-(pyridin-2-yl)thieno[2,3-d]pyrimidin-4-amine]",7100
11,"Fc1ccc([C@@H]2C[C@H]2Nc2nc(-c3ccccn3)nc3sc(Cl)cc23)cc1F [Example 32, 6-chloro-N-((1R,2S)-2-(3,4-difluorophenyl)cyclopropyl)-2-(pyridin-2-yl)thieno[2,3-d]pyrimidin-4-amine]",3500
12,"Cc1cc2c(NCCCc3ccccc3)nc(C(=O)O)nc2s1 [Example 579, 6-methyl-4-((3-phenylpropyl)amino)thieno[2,3-d]pyrimidine-2-carboxylic acid]",> 10000
13,"CCc1nc(NCCCc2ccc(-c3ccc(NS(C)(=O)=O)cc3)cc2)c2cc(C)sc2n1 [Example 277, N-(4′-(3-((2-ethyl-6-methylthieno[2,3-d]pyrimidin-4-yl)amino)propyl)-[1,1′-biphenyl]-4-yl)methanesul-fonamide]",630
14,"COc1ccc(CCCNc2nc(SC)nc3sc(C)cc23)cc1 [Example 103, N-(3-(4-methoxyphenyl)propyl)-6-methyl-2-(methylthio)thieno[2,3-d]pyrimidin-4-amine]",22
15,"CCc1nc(NCCCc2ccc(-c3ccc(F)c(F)c3)cc2)c2cc(C)sc2n1 [Example 276, N-(3-(3′,4′-difluoro-[1,1′-biphenyl]-4-yl)propyl)-2-ethyl-6-methylthieno[2,3-d]pyrimidin-4-amine]",930
16,"CCc1nc(NCCCc2ccccc2)c2cc(CC)sc2n1 [Example 86, 2,6-diethyl-N-(3-phenylpropyl)thieno [2,3-d]pyrimidin-4-amine]",> 1200
17,"CCc1nc(NC(C)CCc2ccccc2)c2cc(C)sc2n1 (stereo not shown) [Example 23, 2-ethyl-6-methyl-N-(4-phenylbutan-2-yl)thieno[2,3-d]pyrimidin-4-amine]",8300
18,"Cc1cc2c(NCCCc3ccccc3)nc(-c3ccc(F)cc3)nc2s1 [Example 126, 2-(4-fluorophenyl)-6-methyl-N-(3-phenylpropyl)thieno [2,3-d]pyrimidin-4-amine]",2600
19,"Cc1cnc(-c2ccc(CCCNc3nc(-c4ccoc4)nc4sc(C)cc34)cc2)cn1 [Example 393, 2-(furan-3-yl)-6-methyl-N-(3-[4-(5-methyl-pyrazin-2-yl)phenyl]propyl) thieno[2,3-d] pyrimidin-4-amine]",16
